Assay results as given in patent US7785567B2, “Growth hormone-releasing peptides in the treatment or prevention of atherosclerosis and hypercholesterolemia” (Valorisation-Recherche, Société en Commandite, priority 2002, dated 2010).
Where a SMILES comes first, the peptide text is derived from it. Primed or numbered codes have the meaning given here. Where no end group is shown, it is not given here. [ ]: non-standard residue; d: D form. dTrp(2-Me) = Cc1[nH]c2ccccc2c1C[C@@H](N)C(=O)O; Haic′ = not defined here

Legend:
ApoE-null mice [1] = assay: Fatty streak lesion area in aortas, en face oil red-O staining, 12 weeks treatment (Example 1); type: in vivo, mouse; conditions: HFHC diet, HEX 100 μg/kg per day or EP80317 300 μg/kg per day s.c. for 12 weeks from 6 weeks old, vs 0.9% NaCl
Method: GHRPs prevent fatty streak formation in ApoE deficient mice fed a HFHC diet for 12 weeks (from 6 weeks old). Effects of HEX (100 μg/kg per day) and of EP80317 (300 μg/kg per day), administered subcutaneously for 12 weeks (from 6 weeks old).
To determine whether GHRPs reduce atherosclerosis development, we have used the ApoE deficient mice strain and their C57BL/6 control littermates to assess the effects of prolonged (12 weeks) GHRPs treatment on fatty streak formation in mice fed a an enriched lipid diet. The surface area of oil red-O staining aortas of mice has been used as an index of plaque development and changes in the plasma levels of lipids as an index of hypolipemic effect. […]
(§1) The animals were housed in cages (less than 5 per cage) and fed a normal chow diet and water ad libitum. […] Four days before sacrifice, 6 mice from Groups 1 to 3 were injected i.p. with oxLDL (minimally oxidized, 3-6 mmol/mg protein, as determined by Thiobarbituric Acid Reactive Substances (TBARS) assay). […] The entire aorta from the heart, extending 5-10 mm after bifurcation of the iliac arteries and including the subclavian right and left common carotid arteries, was removed, dissected, and evaluated for lesion development by en face oil red-O staining and morphometry of scanned images using the software Scion Image (Scion Corp., Fredrick, Md.). […]

ApoE-null mice [2] = assay: Plasma lipid analysis (enzymatic kits) after 12 weeks treatment; type: in vivo, mouse; conditions: HFHC diet; for Increase in HDL cholesterol compared to controls: HEX 100 μg/kg or EP80317 300 μg/kg per day for 12 weeks, tended to be increased
Method: A: Effects of 12 weeks treatment (from 6 weeks old) with 0.9% NaCl (open bar), HEX, 100 μg/kg per day (solid bar) or EP80317 300 μg/kg per day (cross-hatched bar) on total plasma cholesterol in mice fed a HFHC or a normal diet.
The animals were housed in cages (less than 5 per cage) and fed a normal chow diet and water ad libitum. At 6 weeks of age, male C57BL/6, CD36 and ApoE-null mice were assigned to 1 of 3 groups (n=12 mice per group): Group 1 received daily injections of 0.9% NaCl (1 μL/g); Group 2, HEX (100 μg/kg, 1 μL/g), and Group 3, EP80317 (300 μg/kg, 1 μL/g). All three groups of mice were fed a HFHC diet (purchased from Research Diet Inc. (D.12108)) from 6 weeks of age. Daily s.c. treatment with HEX, EP80317 or vehicle was begun at 6 weeks old and continued for 12 weeks. Four days before sacrifice, 6 mice from Groups 1 to 3 were injected i.p. with oxLDL (minimally oxidized, 3-6 mmol/mg protein, as determined by Thiobarbituric Acid Reactive Substances (TBARS) assay). At 18 weeks old, mice were fasted overnight, anaesthetised with ketamine-xylazine (90:10 mg/kg) two hours after the s.c. administration of the morning dose of the drug under study. Blood (1 mL) was taken from the heart and put into EDTA pre-coated microcontainers (BD, Franklin Lakes, N.J., USA). Mice were killed, the hearts were perfused with 20 mL 0.9% NaCl. The peritoneal cavity was washed with 3 mL of heparinised saline (10 units/mL) in mice injected i.p. with oxLDL. A hemacytometer and stained cytospin preparation (Diff Quick stain, Dade Diagnostics of P.R. Inc., Aguada, PR) were used to determine the total and differential leukocyte numbers, respectively, for the peritoneal cavity lavage fluid. The entire aorta from the heart, extending 5-10 mm after bifurcation of the iliac arteries and including the subclavian right and left common carotid arteries, was removed, dissected, and evaluated for lesion development by en face oil red-O staining and morphometry of scanned images using the software Scion Image (Scion Corp., Fredrick, Md.). The animal study protocol was reviewed and approved by the institutional Animal Ethics Committee of the Université de Montréal and conducted in accordance with the Canadian Council on Animal Care guidelines for use of experimental animals.
Total plasma cholesterol, triacylglycerol and HDL cholesterol were determined using enzymatic kits (Sigma Chemicals). Appropriate standards and controls were included in each assay.

CD36 = assay: Western blot of oxLDL-elicited peritoneal macrophages from treated ApoE-null mice; type: in vivo, mouse; conditions: HFHC diet, HEX 100 μg/kg or EP80317 300 μg/kg per day, 12 weeks, normalised to β-actin, vehicle set at 100%
From the text: GHRPs modulate CD36 and ABCA1 protein levels in peritoneal macrophages from ApoE-null mice fed a HFHC diet for 12 weeks. […] Relative protein levels for A, CD36 and B, ABCA1 are normalised to β-actin and expressed as % of change compared to vehicle (0.9% NaCl)-treated controls set at 100%. Data represent the mean of two independent experiments.

[3] = test system: human monocytic THP-1 cells; assay: Lipid accumulation in PMA-differentiated THP-1 macrophages (Oil Red O extraction, 510 nm); type: cell-based; conditions: 10 μM for 24 hrs
Method: A: GHRPs reduce lipid accumulation in differentiated human macrophages. To induce lipid accumulation, human monocytic THP-1 cells were differentiated to macrophages with 5 ng/mL PMA for 48 hrs and then treated as indicated for 24 hrs with 10 μM HEX or EP80317 in the presence of phorbol myristate acetate (PMA). Non-differentiated cells (no PMA) were also analysed. Lipid accumulation was quantified by photometry at 510 nm following extraction of Oil Red O from stained cells. Lipid staining was reduced by 35% and 28% in macrophages treated with HEX and EP80317, respectively, compared to untreated cells.

ApoE-null mice [4] = assay: Fatty streak lesion area in aortas, treatment begun after start of HFHC diet (Example 2); type: in vivo, mouse; conditions: HFHC diet from 6 weeks
Method: The effects of EP80317 (300 μg/kg per day) administered subcutaneously for 8 weeks (from 10 to 18 weeks of age), 6 weeks (from 12 to 18 weeks of age) and 4 weeks (from 14 to 18 weeks of age) were documented, as well as the effect of hexarelin (100 μg/kg per day) given for 4 weeks (from 14 to 18 weeks of age).
To determine whether GHRPs are able to delay the development or to modulate the regression of fatty streaks, we have used the ApoE-deficient mice to assess the effect of the duration of the treatment with GHRPs on the progression of fatty streaks after the initiation of atherosclerotic lesions induced by a HFHC diet starting at 6 weeks of age.
Male ApoE-null mice (n=35) were housed in cages (less than 5 per cage). After weaning until 4 weeks of age, the mice were fed a normal chow diet and water ad libitum. Starting at 6 weeks of age, the mice were fed a HFHC diet (purchased from Research Diet Inc. (D.12108)). The animals were segregated in 3 groups. • Group 1 (n=10) was subdivided into 2 subgroups, receiving, from 10 to 18 weeks of age (i.e. for 8 weeks), daily injections of EP80317 (300 μg/kg) (n=5) or 0.9% NaCl (n=5). • Group 2 (n=10) was subdivided into 2 subgroups receiving, from 12 to 18 weeks of age (i.e. for 6 weeks), daily injections of EP80317 (300 μg/kg/per day) (n=5) or 0.9% NaCl (n=5). • Group 3 (n=15) was subdivided into 3 subgroups, receiving, from 14 to 18 weeks of age (i.e. for 4 weeks), EP80317 (300 μg/kg/per day) (n=5), or hexarelin (100 μg/kg per day) (n=5) or 0.9% NaCl (n=5).
Mice were euthanised at 18 weeks of age. The entire aortas from the heart extending 5-10 mm after bifurcation of the iliac arteries and including the subclavian right and left common carotids were removed, dissected and evaluated for lesion development by en face oil red-O staining and morphometry of scanned images using the software Scion image (Scion Corp., Frederick, Md.).

CD36-null mice = assay: oxLDL-induced accumulation of macrophages in the peritoneal cavity; type: in vivo, mouse; conditions: HFHC diet, EP80317 300 μg/kg per day, 12 weeks
Method: (§2) A: Effects of 12 weeks treatment (from 6 weeks old) with 0.9% NaCl (open bar), HEX, 100 μg/kg per day (solid bar) or EP80317, 300 μg/kg per day (cross-hatched bar) on oxLDL (250 μg i.p., <6 nmol MDA/mg lipoprotein)-induced accumulation of macrophages in the peritoneal cavity in wild type C57BL/6 mice and CD36-null mice fed a HFHC diet. Peritoneal macrophage accumulation in wild type mice tended to be reduced by 37%.
as §1, with “libitum. At 6 weeks of age, male C57BL/6, CD36 and ApoE-null mice were assigned to 1 of 3 groups (n=12 mice per group): Group 1 received daily injections of 0.9% NaCl (1 μL/g); Group 2, HEX (100 μg/kg, 1 μL/g), and Group 3, EP80317 (300 μg/kg, 1 μL/g).” for “libitum.”

wild type C57BL/6 mice = assay: as above; type: in vivo, mouse; conditions: HFHC diet, EP80317 300 μg/kg per day, 12 weeks, oxLDL 250 μg i.p.
Method: as §2
as §1, with “libitum. At 6 weeks of age, male C57BL/6, CD36 and ApoE-null mice were assigned to 1 of 3 groups (n=12 mice per group): Group 1 received daily injections of 0.9% NaCl (1 μL/g); Group 2, HEX (100 μg/kg, 1 μL/g), and Group 3, EP80317 (300 μg/kg, 1 μL/g).” for “libitum.”

ApoE-null mice [5] = assay: as above; type: in vivo, mouse; conditions: normal chow diet, EP80317 300 μg/kg per day, 12 weeks
Method: B: Effects of 12 weeks treatment (from 6 weeks old) with 0.9% NaCl (open bar), HEX, 100 μg/kg per day (solid bar) or EP80317, 300 μg/kg per day (cross-hatched bar) on oxLDL-induced accumulation of macrophages in the peritoneal cavity in ApoE-null mice fed either a HFHC or a normal diet. Peritoneal macrophage accumulation was reduced by 39% in mice fed a normal diet.
as §1, with “libitum. At 6 weeks of age, male C57BL/6, CD36 and ApoE-null mice were assigned to 1 of 3 groups (n=12 mice per group): Group 1 received daily injections of 0.9% NaCl (1 μL/g); Group 2, HEX (100 μg/kg, 1 μL/g), and Group 3, EP80317 (300 μg/kg, 1 μL/g). All three groups of mice were fed a HFHC diet (purchased from Research Diet Inc. (D.12108)) from 6 weeks of age.” for “libitum.”

[6] = test system: peritoneal macrophages isolated from ApoE-null mice; assay: Lipid accumulation in peritoneal macrophages isolated from treated ApoE-null mice (Oil Red O extraction); type: in vivo, mouse; conditions: HFHC diet from 13 to 18 weeks old, EP80317 300 μg/kg s.c. from 13 to 18 weeks old, vs not treated
Method: B: GHRPs reduced lipid accumulation in peritoneal macrophages isolated from ApoE-null mice fed a HFHC diet from 13 to 18 weeks old. EP80317 (300 μg/kg) s.c. has been administered from 13 to 18 weeks old. Lipid staining (assessed by Oil Red O extraction) was reduced by 57% (compared to peritoneal macrophages isolated from ApoE-null mice fed a HFHC diet from 13 weeks old, but not treated with EP80317).

[7] = cited from earlier work
[8] = treatment for 4 weeks (14 to 18 weeks of age), EP80317 300 μg/kg or hexarelin 100 μg/kg per day, not significant
[9] = EP80317 300 μg/kg daily for 12 weeks from 6 weeks old

Cc1[nH]c2ccccc2c1C[C@@H](NC(=O)[C@@H](N)Cc1cnc[nH]1)C(=O)N[C@@H](C)C(=O)N[C@@H](Cc1c[nH]c2ccccc12)C(=O)N[C@H](Cc1ccccc1)C(=O)N[C@@H](CCCCN)C(N)=O [HEX, His-(D) -(Me)Trp-Ala-Trp-(D)-Phe-Lys-NH2, reference compound] (H-H[dTrp(2-Me)]AW[dF]K-NH2)
Reduction of lesion area (% of total aorta area) compared to controls (ApoE-null mice [1]): 28% | Increase in HDL cholesterol compared to controls (ApoE-null mice [2]): 65% | CD36 protein expression in peritoneal macrophages, % of controls (CD36): 57 % of controls | Reduction of lipid staining compared to untreated cells [3]: 35% | Reduction of lesion area (% total aorta area) compared to controls (ApoE-null mice [4]; [8]): 8%

Haic-(D) -(Me)Trp-(D)-Lys-Trp-(D)-Phe-Lys-NH2 ([Haic′]W[dK]W[dF]K-NH2; not fully specified (residue 2)) [EP80317]
Reduction of lesion area (% of total aorta area) compared to controls (ApoE-null mice [1]): 51% | Decrease in non-HDL plasma cholesterol compared to controls (ApoE-null mice [2]; [9]): 31% | Decrease in total plasma cholesterol compared to controls (ApoE-null mice [2]; [9]): 30% | Increase in HDL cholesterol compared to controls (ApoE-null mice [2]): 73% | oxLDL-induced peritoneal macrophage accumulation (CD36-null mice): did not modulate macrophage accumulation | Reduction of oxLDL-induced peritoneal macrophage accumulation (wild type C57BL/6 mice): 37% | Reduction of oxLDL-induced peritoneal macrophage accumulation (ApoE-null mice [5]): 39% | CD36 protein expression in peritoneal macrophages, % of controls (CD36): 27 % of controls | Reduction of lipid staining compared to untreated cells [3]: 28% | Reduction of lipid staining in peritoneal macrophages (Oil Red O extraction) [6]: 57% | Reduction of lesion area (% total aorta area) compared to controls (ApoE-null mice [4]; [8]): 36% | Reduction of lesion area (% total aorta area) compared to controls (ApoE-null mice [4]; treatment for 6 weeks (12 to 18 weeks of age), EP80317 300 μg/kg per day s.c.): 31.3% | Reduction of lesion area (% total aorta area) compared to controls (ApoE-null mice [4]; treatment for 8 weeks (10 to 18 weeks of age), EP80317 300 μg/kg per day s.c.): 39.2% | GH-secreting activity in vivo [7]: devoid of GH-secreting activity in vivo
